According to patent publication US20240269096A1, “Rapid Onset Therapeutic Ketosis Enabled by D-BetaHydroxyButyric Acid Systems, Compounds and Methods for Sepsis Protection and Enhanced Medical Recovery” (American Ketone Therapeutics LLC, priority 2022, published 2024):
Values joined by “and” are separate entries in the source; they are usually repeats but may differ in a detail not shown here. Equal entries are not always repeated.

Experiments:
[1] = test system: LPS-induced myocardial injury and cardiac dysfunction; conditions: mouse model; study utilized the synthetic ketone ester; cited from earlier work
NLRP3 inflammasome = target: T1, NLRP3 inflammasome (Homo sapiens, UniProt Q96P20); conditions: independently of GPR109A binding or mitochondrial oxidation; cited from earlier work
T1 construct: host or cells: macrophages
T1 sequence (Q96P20 whole entry): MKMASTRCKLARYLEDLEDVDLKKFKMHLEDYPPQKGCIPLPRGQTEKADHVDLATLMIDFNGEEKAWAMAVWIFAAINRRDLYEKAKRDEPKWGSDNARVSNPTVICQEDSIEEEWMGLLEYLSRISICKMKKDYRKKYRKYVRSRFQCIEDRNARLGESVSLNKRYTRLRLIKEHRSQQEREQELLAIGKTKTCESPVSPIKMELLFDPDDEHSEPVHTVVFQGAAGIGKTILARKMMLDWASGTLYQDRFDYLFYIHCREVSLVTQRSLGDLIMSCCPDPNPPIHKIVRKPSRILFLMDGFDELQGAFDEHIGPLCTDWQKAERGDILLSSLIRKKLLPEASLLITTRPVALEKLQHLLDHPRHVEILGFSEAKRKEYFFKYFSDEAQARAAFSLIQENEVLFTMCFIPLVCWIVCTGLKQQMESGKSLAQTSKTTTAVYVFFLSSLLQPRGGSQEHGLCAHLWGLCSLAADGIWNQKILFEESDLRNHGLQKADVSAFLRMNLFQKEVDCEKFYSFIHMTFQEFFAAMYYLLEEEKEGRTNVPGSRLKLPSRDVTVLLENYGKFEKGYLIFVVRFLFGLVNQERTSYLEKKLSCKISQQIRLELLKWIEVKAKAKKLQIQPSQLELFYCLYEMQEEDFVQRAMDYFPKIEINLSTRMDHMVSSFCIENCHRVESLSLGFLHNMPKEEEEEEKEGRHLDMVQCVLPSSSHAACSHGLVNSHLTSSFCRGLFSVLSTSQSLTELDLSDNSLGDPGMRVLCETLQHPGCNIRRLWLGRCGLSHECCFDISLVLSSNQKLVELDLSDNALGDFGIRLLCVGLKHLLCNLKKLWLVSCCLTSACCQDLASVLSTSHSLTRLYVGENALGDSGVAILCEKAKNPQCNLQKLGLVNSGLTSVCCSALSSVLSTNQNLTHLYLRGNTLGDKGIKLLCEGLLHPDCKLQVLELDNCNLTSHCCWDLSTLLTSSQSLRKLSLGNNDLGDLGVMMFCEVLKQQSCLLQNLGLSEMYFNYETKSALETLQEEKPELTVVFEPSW

[2] = compared with ketone salts; FIG. 5 literature data; cited from earlier work
[3] = Continuous Ketone Meter (CKM) monitoring of body ketone levels and deep sleep; assay type: in vivo; conditions: 5 grams consumed 45 minutes prior to bedtime
Source text: FIG. 12 is a graphical illustration of continuous monitoring of body ketone levels resulting in improved deep sleep time due to enhanced D-BHB levels according to the claimed invention. It is noteworthy that consumption of even small amounts of free D-BetaHydroxyButyric Acid can give rise to therapeutic ketosis levels as measured by Continuous Ketone Meter (CKM). […] While free D-BetaHydroxyButyric Acid is not a sedative, even small amounts can greatly improve deep sleep quantity and quality. It is an intended and foreseeable embodiment application to increase deep sleep with free D-BetaHydroxyButyric Acid with the aim of guarding against sepsis, improving hospital recovery and enhanced resiliency.

[4] = Blood ketone levels by Abbott blood test strip after oral free D-BHB; assay type: in vivo, human
Source text: FIG. 9 is a graphical illustration of D-BHB exogenous ketone blood levels. The above Abbot blood ketone meter evidenced by Abbott blood test strip depicts the rapid rise in blood ketone levels from 0.1 mmol/L (absence of ketosis) to 2.7 mmol/L (ketosis) after oral bolus administration of 15 grams of bioidentical free D-BetaHydroxyButyric Acid. The ketone levels depicted are attained in the absence of a salt as well as without ester bonds. It is the free acid D-BHB exogenously administered which is bio-identical to the endogenous D-BHB free acid generated by the human body. The bioidentical ketone body D-BHB is first and foremost an energy source, which is directly and preferentially metabolized by the brain. D-BHB is also active as a signaling mechanism and neuro-inflammation reduction agent, resulting in broad and beneficial brain bioenergy related benefits.
FIG. 10 is a graphical illustration of D-BHB exogenous ketone blood levels. FIG. 10 details rapid ketosis within 45 minutes confirmed by Abbott blood test strip after 10 g D-BHB with palatability agent administered by oral drink. Blood ketone levels document rise from 0.2 mmol/L to 1.8 mmol/L and 0.6 mmol/L to 1.9 mmol/L in a variety of test subjects. FIG. 10 reinforces the fact that supplementation by utilizing free D only BetaHydroxyButyric Acid without ketone salt or ketone ester is a reliable, reproduceable method and system for rapid ketone level increase for stroke recovery and maintenance. While amounts of free D only BetaHydroxyButyric Acid taken for stroke effects may vary, it is an anticipated preferred embodiment that levels between 5 and 30 grams of D only BetaHydroxyButyric Acid are taken as needed for optimum recovery. Alternate embodiments may include lower or higher amounts, however, experimental evidence has confirmed optimal administration in this range for a wide variety of other applications.

[5] = Continuous glucose monitoring (Abbot Libre CGM) with carbohydrate challenge; assay type: in vivo; conditions: 10 g administered 45 minutes before 50 g carbohydrate ingestion; versus unsupplemented ingestion
Source text: FIG. 11 is a graphical illustration of continuous monitoring of body glucose levels. FIG. 11 depicts continuous glucose monitoring levels with carbohydrate challenge documented by Abbot Libre Continuous Glucose Monitoring (CGM) device. In this illustrative embodiment, glucose levels from a 50 g carbohydrate ingestion are depicted unaided by free D-BetaHydroxyButyric Acid on the left and repeated the following day with two 50 g carbohydrate ingestions accompanied by 10 g free D-BetaHydroxyButyric Acid administered 45 minutes before the carbohydrate insult. […] As free D-BetaHydroxyButyric Acid can lower glucose while rapidly increasing ketone levels, it is believed that obtaining high ketones while lowering glucose will yield additional stroke recovery benefits for high glucose sensitive individuals suffering from sepsis and may be considered in lieu of insulin administration.

For CC(O)CC(=O)O (stereo not drawn) [β-OHB, β-Hydroxybutyrate], the “effect on LPS-induced myocardial injury and cardiac dysfunction” value [1] is listed as “prevent LPS-induced myocardial injury and cardiac dysfunction” and the “effect on NLRP3 inflammasome in macrophages” value (NLRP3 inflammasome) is listed as “inhibits the NLRP3 inflammasome”.
For C[C@@H](O)CCOC(=O)C[C@@H](C)O [ketone ester, (R)-3-hydroxybutyl (R)-3-hydroxybutyrate], the ketone level response [2] is listed as “higher ketone level response”.
In the case of C[C@@H](O)CC(=O)O [D-BHB, D-β-HydroxyButyric Acid], the “increase in ketone level (CKM)” value [3] is reported as 1.5 mmol/L, the “quantity of deep sleep” value [3] is reported as “enhance the quantity of deep sleep obtained” and the time to ketosis ([4]; 10 g with palatability agent by oral drink) is reported as no more than 45 min. For the same compound, the “blood ketone levels after administration” value ([4]; 10 g with palatability agent by oral drink, within 45 minutes, rise from 0.2 and 0.6 mmol/L respectively, different test subjects) was 1.8 mmol/L and 1.9 mmol/L, the “blood ketone levels after administration” value ([4]; oral bolus of 15 grams, rise from 0.1 mmol/L (absence of ketosis)) was 2.7 mmol/L and the “glucose spike after carbohydrate ingestion” value [5] was “the rapid glucose spike depicted in the unsupplemented ingestion is not found”.
